Results reported in article PMC3071374, “High Throughput Screens Yield Small Molecule Inhibitors of Leishmania CRK3:CYC6 Cyclin-Dependent Kinase” (PLoS Neglected Tropical Diseases, 2011).
Read-outs that look alike come from different tables or passages of the source.

Key:
WT promastigote L. major = assay: L. major promastigote growth inhibition assay (resazurin); assay type: cell-based; conditions: for IC50: 5 days at 25°C, read-out: IC50 against WT promastigote L. major
Procedure: L. major wild type promastigotes (Friedlin strain: WHO designation MHOM/JL/81/Friedlin) were grown at 25°C in HOMEM medium (Invitrogen cat no. 041-94699111) supplemented with 10% (v/v) heat inactivated foetal calf serum (HIFCS) and 1% (v/v) penicillin/streptomycin antibiotics.
CRK3 inhibitors were diluted into HOMEM medium supplemented with 10% HIFCS at twice the final screening concentration. Five-fold or ten-fold serial dilutions were carried out into HOMEM medium supplemented with 10% HIFCS. 100 µl of each drug concentration were added to a 96 well plate in duplicate. 100 µl of five-fold or ten-fold serial dilutions of 1 mM Pentamidine (Sigma) and an equivalent volume of 100% DMSO were included as positive and negative controls, in duplicate, respectively. L. major promastigote cells were diluted to a cell density of 2×10^6 cells ml^−1 in HOMEM media supplemented with 10% HIFCS and 100 µl added to all wells in 96 well plates. Plates were sealed with parafilm and incubated for 5 days at 25°C. After 5 days, 20 µl of filter sterile resazurin solution (12.5 mg resazurin salt in 100 ml PBS) (Sigma) was added to each of the wells and the plate incubated for a further 24 hours at 25°C. Fluorescence was measured using an Envision plate reader (Perkin Elmer) at 540 nm excitation wavelength and 590 nm emission wavelength.

CDK4:CYCD1 = CDK4:CYCD1 (Homo sapiens, UniProt P11802); assay: Mammalian protein kinase assay, CDK4:CYCD1; assay type: biochemical; conditions: Lexicon azapurine HTS hits
Procedure: (§1) Leishmania CRK3:CYC6 protein kinase assays were performed in 96-well microtiter plates in a final volume of 25 µl. Each assay point contained 7.5 ng of co-expressed histidine-tagged CRK3:CYC6 protein kinase complex (hereafter referred to as CRK3:CYC6) diluted in enzyme dilution buffer (EDB) (20 mM Tris-HCl pH 7.2, 0.5 mg ml^−1 BSA, 2.5% glycerol and 0.006% Brij-35). Assays were performed using the assay development buffer (ADB) (20 mM MOPS, pH 7.0, 25 mM β-glycerophosphate, 5 mM EGTA, 1 mM NaVO3, 1 mM DTT and 15 mM MgCl2) supplemented with 100 µM ATP, 0.5 µCi of γ-^32P ATP per reaction and histone H1 as a substrate used at 0.4 mg ml^−1. Two and three-fold titrations were set up to determine the concentration of enzyme to be used per assay point (7.5 ng) and to determine the concentrations of selected inhibitors required for 50% inhibition of Leishmania CRK3:CYC6 protein kinase activity (IC50 values), respectively. For IC50 determinations, assay mixes contained DMSO to a final concentration of 2%. Mammalian protein kinase assays were carried out according to the assay protocols developed at Cyclacel. Assays were carried out for 30 minutes at 30°C before stopping the reaction by the addition of an equal volume (25 µl) of 75 mM orthophosphoric acid. Samples were spotted onto a p81 cellulose filterplate (Nunc) and a vacuum applied. Wells were washed 3×200 µl with 75 mM phosphoric acid and the bottom of the plate sealed. 50 µl of Microscint 40 (Perkin Elmer) was added per well before incorporation of radioactivity was determined on a Topcount microplate scintillation counter.

WT amastigote L. major = assay: Intra-macrophage L. major amastigote assay; assay type: cell-based; conditions: for IC50: read-out: IC50 against WT amastigote L. major
Procedure: Macrophages were harvested from the peritoneum of Balb/C mice, centrifuged at 1000× g for 10 minutes at 4°C and resuspended in fresh RPMI 1640 media supplemented with 10% HIFCS and 1% (v/v) Gentamicin, as described previously. Macrophages were diluted to a cell density of 5×10^5 cells ml^-1 in RPMI supplemented with 10% HIFCS and 100 μl were added to each well of a 16-well Lab-tek cavity slide (50,000 mφ/well) and incubated at 37°C, 5% CO2 for subsequent experiments. […] Inhibitors were set up in a five-fold dilution series in RPMI 1640 medium supplemented with 10% […] of inhibitor were added to the wells in serial dilution and slides incubated for 72 hours at 37°C with 5% CO2. After 72 hours the medium was removed and replaced with fresh medium containing the same concentrations of inhibitors and incubated for a further 48 hours at 37°C with 5% CO2. At the end of the incubation period, the medium was removed, the slides were washed twice with fresh RPMI 1640 medium supplemented with 10% HIFCS then fixed with 100% methanol and stained with 10% Giemsa's stain for 10 minutes. The percentage of infected macrophages and number of amastigotes per macrophage were determined by light microscopy under oil immersion.

Leishmania CRK3:CYC6 = Leishmania CRK3:CYC6 (Leishmania major, UniProt O96526); assay type: biochemical
Procedure: as §1

[1] = Lexicon azapurine HTS hits, maximum concentration tested 10 µM
[2] = Lexicon azapurine HTS hits, infected peritoneal macrophages
[3] = re-synthesised Lexicon azapurine hits
[4] = synthesised azapurine derivatives
[5] = synthesised azapurine derivatives, infected peritoneal macrophages

CDK4:CYCD1, sequence (P11802 whole entry): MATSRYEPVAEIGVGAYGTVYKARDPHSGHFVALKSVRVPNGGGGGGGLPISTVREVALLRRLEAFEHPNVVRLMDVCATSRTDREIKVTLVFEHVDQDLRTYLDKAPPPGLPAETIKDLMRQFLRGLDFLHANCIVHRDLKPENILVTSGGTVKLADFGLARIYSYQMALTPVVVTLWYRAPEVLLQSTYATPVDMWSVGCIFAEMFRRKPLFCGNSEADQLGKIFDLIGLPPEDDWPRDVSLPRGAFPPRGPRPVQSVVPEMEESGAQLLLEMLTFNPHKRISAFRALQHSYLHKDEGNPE
CDK4:CYCD1, sequence (P24385 whole entry partner): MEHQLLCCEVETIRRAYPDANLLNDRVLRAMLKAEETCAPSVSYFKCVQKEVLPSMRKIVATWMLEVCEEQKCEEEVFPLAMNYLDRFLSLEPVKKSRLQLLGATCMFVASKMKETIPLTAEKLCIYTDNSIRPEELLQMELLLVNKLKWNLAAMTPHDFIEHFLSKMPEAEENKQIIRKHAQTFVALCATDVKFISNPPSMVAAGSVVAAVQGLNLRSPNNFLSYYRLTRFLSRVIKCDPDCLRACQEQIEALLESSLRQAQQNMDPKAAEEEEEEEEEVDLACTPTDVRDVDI
Leishmania CRK3:CYC6, sequence (Q4Q4U0 entry or part of it): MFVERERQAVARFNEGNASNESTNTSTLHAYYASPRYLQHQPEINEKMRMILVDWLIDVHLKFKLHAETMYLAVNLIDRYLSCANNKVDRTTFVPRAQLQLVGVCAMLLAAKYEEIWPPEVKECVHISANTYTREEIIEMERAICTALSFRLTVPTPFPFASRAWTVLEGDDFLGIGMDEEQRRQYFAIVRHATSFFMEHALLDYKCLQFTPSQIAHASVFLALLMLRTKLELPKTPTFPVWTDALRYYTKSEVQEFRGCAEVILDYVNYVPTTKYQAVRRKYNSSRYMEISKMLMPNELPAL
Leishmania CRK3:CYC6, sequence (O96526 entry or part of it): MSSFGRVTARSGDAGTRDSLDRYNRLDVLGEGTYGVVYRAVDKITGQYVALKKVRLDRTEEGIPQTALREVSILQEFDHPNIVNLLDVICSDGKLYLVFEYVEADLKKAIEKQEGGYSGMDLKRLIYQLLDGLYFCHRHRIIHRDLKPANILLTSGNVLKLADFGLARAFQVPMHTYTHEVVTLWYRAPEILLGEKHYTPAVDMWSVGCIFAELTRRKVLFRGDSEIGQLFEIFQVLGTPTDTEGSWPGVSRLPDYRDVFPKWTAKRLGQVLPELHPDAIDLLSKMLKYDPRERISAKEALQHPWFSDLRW

Structure (SMILES)	IC50 (WT promastigote L. major; [1])	IC50 (CDK4:CYCD1)	IC50 (WT amastigote L. major; [2])	IC50 (Leishmania CRK3:CYC6; Lexicon azapurine HTS hits)	also measured
COc1ccc(-n2nnc3c(N4CCCC(O)C4)nc(CC4CCCCC4)nc32)cc1 (racemic) [Compound 5]	8.6 µM	9.7 µM	> 50 µM	5.3 µM	activity towards the amastigote life cycle stage (in words) (WT amastigote L. major): no activity; IC50 (Leishmania CRK3:CYC6; [3]): 4.2 µM
COc1ccc(Cn2nnc3c(N4CCCC(O)C4)nc(CC4CCCCC4)nc32)cc1 (racemic) [Compound 19]					activity towards promastigote L. major (in words) (WT promastigote L. major): showed a range of activity; IC50 (WT promastigote L. major; [4]): 5 to 50 µM; IC50 (Leishmania CRK3:CYC6; [4]): > 50 µM
COc1ccc(-n2nnc3c(N4CCCC(O)C4)nc(Cc4ccccc4)nc32)cc1 (racemic) [Compound 29]					activity towards promastigote L. major (in words) (WT promastigote L. major): showed a range of activity; inhibition of parasite growth in culture (in words) (WT promastigote L. major; promastigotes and intra-macrophage amastigotes in culture): inhibited parasite growth in culture; IC50 (WT promastigote L. major; [4]): 38.7 µM; activity against amastigotes (in words) (WT amastigote L. major; [5]): Activity observed at 25 μM; inhibition of CRK3/CYC6 in vitro (in words) (Leishmania CRK3:CYC6): did not inhibit; IC50 (Leishmania CRK3:CYC6; [4]): > 100 µM
OC1CCCN(c2nc(CC3CCCCC3)nc3c2nnn3Cc2ccc(F)cc2)C1 (racemic) [Compound 33]					IC50 (WT promastigote L. major; [4]): > 50 µM; IC50 (WT amastigote L. major; [5]): > 50 µM; IC50 (Leishmania CRK3:CYC6; [4]): 47.6 µM
COc1ccc(-n2nnc3c(N(C)CCN(C)C4c5ccccc5CC4O)nc(CC4CCCCC4)nc32)cc1 (stereo not drawn) [Compound 1]	> 10 µM	12.5 µM	> 50 µM	2.6 µM	
CCCN(c1nc(CC2CCCCC2)nc2c1nnn2-c1ccc(OC)cc1)C1CCCC1N(C)C (stereo not drawn) [Compound 2]	> 10 µM	5.6 µM	38.4 µM	3.4 µM	activity towards promastigote L. major (in words) (WT promastigote L. major): did not have activity
COc1ccc(-n2nnc3c(NCC(C)O)nc(CC4CCCCC4)nc32)cc1 (stereo not drawn) [Compound 3]	> 10 µM	21.9 µM	> 50 µM	4.4 µM	IC50 (Leishmania CRK3:CYC6; [3]): 24.2 µM
COc1ccc(-n2nnc3c(N(C)C4COCC4N(C)C)nc(CC4CCCCC4)nc32)cc1 (stereo not drawn) [Compound 4]	> 10 µM	10.3 µM	> 50 µM	4.4 µM	
COc1ccc(-n2nnc3c(N4CCCC(CO)C4)nc(CC4CCCCC4)nc32)cc1 (stereo not drawn) [Compound 6]	> 10 µM	9.2 µM	> 50 µM	6.9 µM	IC50 (Leishmania CRK3:CYC6; [3]): 4.4 µM
COc1ccc(-n2nnc3c(N(C)C(CN4CCCCC4)c4ccccc4)nc(CC4CCCCC4)nc32)cc1 (stereo not drawn) [Compound 7]		19.5 µM		7.8 µM	
CCC(CC)Nc1nc(CC2CCCCC2)nc2c1nnn2-c1ccc(OC)cc1 [Compound 8]		26.9 µM		8.1 µM	
COc1ccc(-n2nnc3c(NC(C)C)nc(CC4CCCCC4)nc32)cc1 [Compound 9]		19.8 µM		8.8 µM	IC50 (Leishmania CRK3:CYC6; [3]): 37.9 µM
COc1ccc(-n2nnc3c(NC(Cc4ccccc4)Cn4nc(C)cc4C)nc(CC4CCCCC4)nc32)cc1 (stereo not drawn) [Compound 10]		7.3 µM		10.1 µM	
COc1ccc(-n2nnc3c(N4CC(N5CCN(c6ccccn6)CC5)C4)nc(CC4CCCCC4)nc32)cc1 [Compound 11]		6.7 µM		10.3 µM	
COc1ccc(-n2nnc3c(NC(CO)CC(C)C)nc(CC4CCCCC4)nc32)cc1 (stereo not drawn) [Compound 12]		4.6 µM		10.7 µM	
